# Reference: publication PMC11677752 (Pharmaceutics, 2024)
# How the values were obtained:
# NAT = settings: cited from earlier work; for Inhibition of 5-ASA Ac-CoA-dependent metabolism: alternative NAT substrates
# [1] = design: method as in PMID 3557190; settings: healthy volunteers, intravenous dose 0.50 g, oral dose 2.42 g; cited from earlier work
# [2] = 5-ASA membrane distribution study in rats (GI membrane concentrations); settings: fed rats, oral 30 mg/2.2 mL/kg
# Procedure: The animal study was performed according to the Care and Use of Laboratory Animals of the Committee for Animal Experiments of Fukuyama University (2023-A-10). Male Sprague Dawley rats were purchased from Japan SLC, Inc. (Hamamatsu, Japan). After feeding for several days, the rats that weighed 200 to 300 g were used for the membrane distribution studies. […] Separately, the fed rats were treated with lansoprazole, which was dissolved with a small amount of dimethyl sulfoxide (DMSO) and then diluted with physiological saline to make a lansoprazole solution (5 mg/mL); this solution was injected intraperitoneally at a 5 mg/mL/kg dose. […] One milliliter of water was poured into each isolated segment’s lumen and the luminal fluid pH was measured using a compact pH meter (HORIBA, LAQUA twin®, Kyoto, Japan). The intestinal tract was opened and cleaned with ice-cold 0.9% NaCl solution, frozen in liquid nitrogen, and stored at −80 °C until analysis.
# An L-column 2 ODS (150 mm × 4.6 mm, particle size 5 µm, CERI Co., Ltd., Saitama, Japan) was used, and the mobile phase was a mixture of 0.1 M acetic acid, acetonitrile, and triethylamine (920:100:2, v/v/v). The mobile phase flow rate was 1 mL/min. […] The HPLC system (Shimadzu, Kyoto, Japan) comprised a model LC20AD pump, a 20 µL fixed injection loop, and a fluorescence spectrophotometer (Shimadzu, RF10AXL). […]
# MRP2 = settings: cited from earlier work
# [3] = system: peptide transporter 1 (PEPT1); design: method as in PMID 28867741; settings: cited from earlier work
# [4] = Regional luminal fluid pH in rats; format: in vivo; settings: lansoprazole 5 mg/mL/kg i.p. 1 h before oral 5-ASA solution in 5% NaHCO3; 3 h after 5-ASA; untreated control rats […] ± 0.60, p = 0.07
# [5] = three animal species (rats, rabbits, and pigs); cited from earlier work
compound,measurement,setting,value
"Nc1ccc(O)c(C(=O)O)c1 [5-ASA, 5-Aminosalicylic acid]",Km,"NAT; saturable, read-out: Km of Ac-CoA-dependent metabolism",5.8 µM
same,Absolute oral bioavailability,[1],15.5%
same,Time for remaining unabsorbed 5-ASA in the small intestine to reach the distal intestine,[2],≤ 8 h
same,Time for some fraction of orally administered 5-ASA to reach the cecum/proximal colon,[2],≤ 3 h
same,Substrate for MRP2,MRP2,is not a substrate and not
same,Inhibition of PEPT1-mediated uptake transport,[3],can inhibit
O=c1c(O)c(-c2ccc(O)c(O)c2)oc2cc(O)cc(O)c12 [quercetin],PappBA/PappAB permeability ratio of AC-5-ASA in presence of the MRP inhibitor,MRP2; Caco-2 cells,~1
"CC(=O)Nc1ccc(O)c(C(=O)O)c1 [AC-5-ASA, N-acetyl-5-ASA]",PappBA/PappAB ratio,MRP2; Caco-2 cells,4.89
same,Substrate for MRP2,MRP2,is a substrate
CN(C)C(=O)CCSC(SCCC(=O)O)c1cccc(/C=C/c2ccc3ccc(Cl)cc3n2)c1 (centres unmarked) [MK571],PappBA/PappAB permeability ratio of AC-5-ASA in presence of the MRP inhibitor,MRP2; Caco-2 cells,~1
NNC(=O)c1ccncc1 [isoniazid],Inhibition of 5-ASA Ac-CoA-dependent metabolism,NAT,inhibited
Cc1c(OCC(F)(F)F)ccnc1C[S+]([O-])c1nc2ccccc2[nH]1 (centres unmarked) [lansoprazole],Gastric pH,[4],4.77 ± 0.12
C[C@]12C=CC(=O)C=C1CC[C@@H]1[C@@H]2[C@@H](O)C[C@@]2(C)[C@H]1CC[C@]2(O)C(=O)CO [prednisolone],Correlation of solubility with gastrointestinal pH,[5],not correlated significantly
Nc1ccc(C(=O)N[C@@H](CCC(=O)O)C(=O)O)cc1 [p-aminobenzoylglutamate],Inhibition of 5-ASA Ac-CoA-dependent metabolism,NAT,inhibited
